Test [1] addresses T1, Cannabinoid receptor 1 (Homo sapiens, UniProt P21554). Put plainly: SAR analysis of agonists of the Cannabinoid Receptor 1 using an Image-Based Assay - Set 2. [Related pubchem assays (depositor defined):AID2013, AID2026]. The test is classed as functional.
The target of test [2] is T2, G-protein coupled receptor 35 (Homo sapiens, UniProt Q9HC97). Put plainly: SAR analysis of Agonists of the GPR35 Receptor using an Image-Based Assay - Set 2. [Related pubchem assays (depositor defined):AID2013, AID2026]. The test is classed as functional.
In test [3] the target is T1, Cannabinoid receptor 1. In words: SAR analysis of antagonists of the Cannabinoid Receptor 1 using an Image-Based Assay - Set 2. [Related pubchem assays (depositor defined):AID2013, AID2026]. The test is classed as functional.
Test [4] has as its target T3, G-protein coupled receptor 55 (Homo sapiens, UniProt Q9Y2T6). In words: blockade of LPI-induced GPR55 arrestin translocation – imaging, U2OS, beta-arrestin-GFP, LPI agonist, set 2, SAR follow-up (AID 2820). The test is classed as functional.
The target in test [5] is T4, Cannabinoid receptor 2 (Homo sapiens, UniProt P34972). Put plainly: SAR analysis of agonists of the Cannabinoid Receptor 2 using an Image-Based Assay. [Related pubchem assays (depositor defined):AID2013, AID2026]. The test is classed as functional.
Test [6] deals with Streptococcus. Put plainly: GAS UMAA2166 growth inhibition – luminescence, BacTiterGlo, counter-screen for streptokinase expression inhibitor project, dose response (AID 1915).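 Also: potency for reduction of bacterial viability or growth.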 The test is classed as functional, organism-based. Particulars: read-out: EC50. Background: A counterscreen serves to expose hits that act by an unwanted route or on another target.
The target in test [7] is T5, Fatty acid synthase (Homo sapiens, UniProt P49327). Put plainly: inhibition of human FAS-TE enzyme activity – biochemical, kinetic fluorescence intensity, dose response (AID 624326).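 Also: rate of fluorescence rise from hydrolysis of a fluorogenic O-methyl fluorescein ester substrate.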 The test is classed as functional.
For test [8], the target named is T6, Small ubiquitin-related modifier 1 (Homo sapiens, UniProt P63165). Put plainly: SUMO1 protein interaction blockers, potency – biochemical, fluorescence polarization, uHTS hits, dose response (AID 624382). The test is classed as functional. Particulars: read-out: IC50_Mean. (In general: Fluorescence polarisation rises when a labelled molecule tumbles more slowly, as on binding a larger partner.)

Test [9] deals with T5, Fatty acid synthase. In words: inhibition of human FAS-TE enzyme activity – biochemical, endpoint fluorescence intensity, uHTS hits, dose response (AID 624327).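 Also: fluorescence from hydrolysis of an O-methyl fluorescein acyl ester substrate by the enzyme.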 The test is classed as functional.
In test [10] the target is T3, G-protein coupled receptor 55. In words: inhibition of LPI-stimulated GPR55 beta-arrestin translocation – imaging, U2OS, beta-arrestin-GFP, LPI agonist, primary screen (AID 2013).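 Also: antagonist potency measured as reduced agonist-driven arrestin aggregation.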 The test is classed as functional.
Test [11] addresses T7, Streptokinase A (Streptococcus pyogenes serotype M1, UniProt P10520).
T7 sequence (P10520 whole entry): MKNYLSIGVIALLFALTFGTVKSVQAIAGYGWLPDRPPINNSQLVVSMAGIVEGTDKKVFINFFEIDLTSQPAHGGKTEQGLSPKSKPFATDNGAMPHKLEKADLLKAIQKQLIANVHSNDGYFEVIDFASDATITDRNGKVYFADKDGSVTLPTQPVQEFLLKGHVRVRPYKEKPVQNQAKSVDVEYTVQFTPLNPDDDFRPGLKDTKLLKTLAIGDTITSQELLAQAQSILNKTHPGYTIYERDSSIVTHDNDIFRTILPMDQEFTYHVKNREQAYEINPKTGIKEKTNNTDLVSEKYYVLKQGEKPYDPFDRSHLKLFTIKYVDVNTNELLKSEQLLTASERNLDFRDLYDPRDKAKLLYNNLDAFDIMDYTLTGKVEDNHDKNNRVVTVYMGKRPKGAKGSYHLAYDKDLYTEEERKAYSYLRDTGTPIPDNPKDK
Put plainly: viability-normalized secreted streptokinase activity reduction – plasminogen activation absorbance, OD405, dose response (AID 1914).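 Also: secreted streptokinase activity via plasminogen activation per viability signal from cell pellet.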 The test is classed as functional, Streptococcus pyogenes M1 GAS.

Test [12] has as its target T2, G-protein coupled receptor 35. In words: SAR analysis of Antagonists of the GPR35 Receptor using an Image-Based Assay - Set 3. [Related pubchem assays (depositor defined):AID2013, AID2026]. The test is classed as functional.
The target in test [13] is T4, Cannabinoid receptor 2. In words: SAR analysis of antagonists of the Cannabinoid Receptor 2 using an Image-Based Assay. [Related pubchem assays (depositor defined):AID2013, AID2026]. The test is classed as functional.
In test [14] the target is Trypsin (Sus scrofa, UniProt P00761). In words: trypsin protease activity blockade – biochemical, quenched peptide fluorescence, cherry-pick, selectivity assay for Rce1 protease inhibitor project, dose response (AID 488789).
Test [15] concerns the target T8, CAAX prenyl protease 2 (Saccharomyces cerevisiae S288c, UniProt Q03530).
T8 sequence (Q03530 whole entry): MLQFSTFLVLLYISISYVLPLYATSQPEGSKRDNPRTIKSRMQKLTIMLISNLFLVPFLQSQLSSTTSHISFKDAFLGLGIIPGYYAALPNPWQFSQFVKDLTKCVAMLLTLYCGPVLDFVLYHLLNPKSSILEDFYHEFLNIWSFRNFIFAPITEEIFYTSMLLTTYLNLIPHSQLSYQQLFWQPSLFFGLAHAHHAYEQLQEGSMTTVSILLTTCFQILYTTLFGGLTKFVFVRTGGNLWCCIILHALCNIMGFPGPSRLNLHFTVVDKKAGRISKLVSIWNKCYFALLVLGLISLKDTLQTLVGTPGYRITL
The test is classed as biochemical.

For test [16], the target named is T6, Small ubiquitin-related modifier 1. Put plainly: SUMO1 protein-protein binding blockers, potency – biochemical, FRET, dose response (AID 624383). The test is classed as functional. Particulars: read-out: IC50_Mean.
The target of test [17] is T9, Ubiquitin-conjugating enzyme E2 N (Homo sapiens, UniProt P61088).
T9 sequence (P61088 whole entry): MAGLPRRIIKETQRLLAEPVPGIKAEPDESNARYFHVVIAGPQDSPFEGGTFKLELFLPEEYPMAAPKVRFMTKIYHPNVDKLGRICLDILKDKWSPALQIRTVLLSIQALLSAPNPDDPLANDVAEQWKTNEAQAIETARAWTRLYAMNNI
The test is classed as functional.

For test [18], the target named is Bcl-2-related protein A1 (Mus musculus, UniProt Q07440). The test is classed as functional.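 Also: confirmatory dose–response counterscreen on Bfl-1, used to check hits from a UBC13 polyubiquitin inhibitor campaign.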
Test [19] addresses T9, Ubiquitin-conjugating enzyme E2 N. The test is classed as functional. The source holds these as a separate data set.
The target of test [20] is T10, Hexokinase-1 (Homo sapiens, UniProt P19367).
T10 sequence (P19367 whole entry): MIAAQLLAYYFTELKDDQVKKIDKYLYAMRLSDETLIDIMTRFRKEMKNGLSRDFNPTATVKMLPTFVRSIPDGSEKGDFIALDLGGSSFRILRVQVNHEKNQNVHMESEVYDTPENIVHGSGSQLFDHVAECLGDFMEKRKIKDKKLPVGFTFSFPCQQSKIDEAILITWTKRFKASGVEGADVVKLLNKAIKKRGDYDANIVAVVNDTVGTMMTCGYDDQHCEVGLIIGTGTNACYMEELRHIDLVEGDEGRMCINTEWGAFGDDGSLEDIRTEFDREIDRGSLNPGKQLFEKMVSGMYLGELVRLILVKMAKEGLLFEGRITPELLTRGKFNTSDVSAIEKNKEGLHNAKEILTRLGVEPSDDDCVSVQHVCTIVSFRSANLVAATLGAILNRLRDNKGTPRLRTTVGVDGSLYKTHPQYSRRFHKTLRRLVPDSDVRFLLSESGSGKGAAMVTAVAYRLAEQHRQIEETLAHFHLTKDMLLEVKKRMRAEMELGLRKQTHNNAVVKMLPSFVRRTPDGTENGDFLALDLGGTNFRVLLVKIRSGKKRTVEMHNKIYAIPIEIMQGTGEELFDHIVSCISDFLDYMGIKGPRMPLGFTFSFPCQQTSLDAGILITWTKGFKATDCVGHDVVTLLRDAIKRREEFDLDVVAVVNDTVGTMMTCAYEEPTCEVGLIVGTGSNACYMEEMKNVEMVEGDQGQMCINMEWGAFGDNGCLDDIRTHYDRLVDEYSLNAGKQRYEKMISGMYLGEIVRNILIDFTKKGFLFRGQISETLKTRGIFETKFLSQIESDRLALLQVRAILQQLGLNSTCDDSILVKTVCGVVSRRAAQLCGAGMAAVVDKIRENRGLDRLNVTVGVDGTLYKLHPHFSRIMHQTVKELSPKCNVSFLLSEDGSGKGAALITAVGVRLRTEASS
In words: HK1 enzyme activation by HKDC1 hits – biochemical, selectivity assay for HKDC1 activator project, dose response (AID 504762). The test is classed as functional.

Test [21] deals with T11, Hexokinase HKDC1 (Homo sapiens, UniProt Q2TB90).
T11 sequence (Q2TB90 whole entry): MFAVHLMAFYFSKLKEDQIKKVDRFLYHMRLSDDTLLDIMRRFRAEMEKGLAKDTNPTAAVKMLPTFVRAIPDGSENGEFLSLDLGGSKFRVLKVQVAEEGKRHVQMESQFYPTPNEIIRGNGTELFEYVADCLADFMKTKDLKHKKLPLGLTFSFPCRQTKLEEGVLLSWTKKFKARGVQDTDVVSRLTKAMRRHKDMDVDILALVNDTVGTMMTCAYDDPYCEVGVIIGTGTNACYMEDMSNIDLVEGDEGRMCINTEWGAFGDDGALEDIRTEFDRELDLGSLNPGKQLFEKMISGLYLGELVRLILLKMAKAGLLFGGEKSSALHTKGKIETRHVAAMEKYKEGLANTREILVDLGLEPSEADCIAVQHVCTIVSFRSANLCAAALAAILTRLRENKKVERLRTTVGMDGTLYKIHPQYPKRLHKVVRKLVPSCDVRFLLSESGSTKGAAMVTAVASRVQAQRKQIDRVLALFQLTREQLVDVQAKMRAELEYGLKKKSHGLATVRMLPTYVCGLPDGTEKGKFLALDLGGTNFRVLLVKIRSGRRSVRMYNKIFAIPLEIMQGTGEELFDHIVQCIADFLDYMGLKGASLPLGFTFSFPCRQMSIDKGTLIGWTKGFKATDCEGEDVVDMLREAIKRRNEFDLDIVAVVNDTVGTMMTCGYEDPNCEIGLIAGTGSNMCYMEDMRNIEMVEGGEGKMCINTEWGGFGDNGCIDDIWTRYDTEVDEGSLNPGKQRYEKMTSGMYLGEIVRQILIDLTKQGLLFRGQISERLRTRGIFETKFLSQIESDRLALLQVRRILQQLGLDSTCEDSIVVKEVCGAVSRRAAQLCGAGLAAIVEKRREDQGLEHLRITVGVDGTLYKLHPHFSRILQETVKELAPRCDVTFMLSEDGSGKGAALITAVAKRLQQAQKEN
In words: activation of HKDC1 glucose phosphorylation – biochemical, W721R variant, dose response (AID 504730). The test is classed as functional.

For test [22], the target named is T2, G-protein coupled receptor 35. Put plainly: SAR analysis of Agonists of the GPR35 Receptor using an Image-Based Assay - Set 4. [Related pubchem assays (depositor defined):AID2013, AID2026]. The test is classed as functional.
Test [23] deals with T3, G-protein coupled receptor 55. In words: SAR Analysis of Selective Antagonists of GPR55 using an Image-Based Assay - Set 4. [Related pubchem assays (depositor defined):AID2013, AID2026]. The test is classed as functional.
Test [24] addresses T4, Cannabinoid receptor 2. Put plainly: SAR analysis of antagonists of the Cannabinoid Receptor 2 using an Image-Based Assay - Set 3. [Related pubchem assays (depositor defined):AID2013, AID2026]. The test is classed as functional.
Test [25] deals with T1, Cannabinoid receptor 1. In words: SAR analysis of agonists of the Cannabinoid Receptor 1 using an Image-Based Assay - Set 4. [Related pubchem assays (depositor defined):AID2013, AID2026]. The test is classed as functional.
Test [26] concerns the target T1, Cannabinoid receptor 1. In words: SAR analysis of antagonists of the Cannabinoid Receptor 1 using an Image-Based Assay - Set 4. [Related pubchem assays (depositor defined):AID2013, AID2026]. The test is classed as functional.
In test [27] the target is T2, G-protein coupled receptor 35. In words: SAR analysis of Antagonists of the GPR35 Receptor using an Image-Based Assay - Set 6. [Related pubchem assays (depositor defined):AID2013, AID2026]. The test is classed as functional.
Test [28] deals with T4, Cannabinoid receptor 2. In words: SAR analysis of agonists of the Cannabinoid Receptor 2 using an Image-Based Assay - Set 3. [Related pubchem assays (depositor defined):AID2013, AID2026]. The test is classed as functional.

Calls of active or inactive are those of the source.

T1 sequence (P21554 whole entry): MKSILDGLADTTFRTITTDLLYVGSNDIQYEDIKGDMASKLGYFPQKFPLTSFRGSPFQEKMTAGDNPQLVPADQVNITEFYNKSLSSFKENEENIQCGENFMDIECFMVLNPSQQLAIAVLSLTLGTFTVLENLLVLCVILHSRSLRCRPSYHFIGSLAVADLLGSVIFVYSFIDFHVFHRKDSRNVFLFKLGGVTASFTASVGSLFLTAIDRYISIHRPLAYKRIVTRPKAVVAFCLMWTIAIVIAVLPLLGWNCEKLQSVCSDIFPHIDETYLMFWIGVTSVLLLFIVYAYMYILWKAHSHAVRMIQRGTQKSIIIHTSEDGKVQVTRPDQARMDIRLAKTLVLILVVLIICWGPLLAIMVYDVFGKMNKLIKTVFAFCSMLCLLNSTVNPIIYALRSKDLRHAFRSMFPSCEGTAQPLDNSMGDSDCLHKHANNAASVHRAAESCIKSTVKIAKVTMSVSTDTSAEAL
T3 sequence (Q9Y2T6 whole entry): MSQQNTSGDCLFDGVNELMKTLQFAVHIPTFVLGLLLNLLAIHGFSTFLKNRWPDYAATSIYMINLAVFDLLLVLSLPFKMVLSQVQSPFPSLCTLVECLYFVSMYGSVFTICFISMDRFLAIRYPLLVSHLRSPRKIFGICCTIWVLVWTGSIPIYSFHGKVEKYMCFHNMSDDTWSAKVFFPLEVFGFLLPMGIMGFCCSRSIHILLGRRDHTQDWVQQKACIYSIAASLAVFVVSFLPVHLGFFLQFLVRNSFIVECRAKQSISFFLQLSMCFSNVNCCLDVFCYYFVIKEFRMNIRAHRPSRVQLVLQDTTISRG
T2 sequence (Q9HC97 whole entry): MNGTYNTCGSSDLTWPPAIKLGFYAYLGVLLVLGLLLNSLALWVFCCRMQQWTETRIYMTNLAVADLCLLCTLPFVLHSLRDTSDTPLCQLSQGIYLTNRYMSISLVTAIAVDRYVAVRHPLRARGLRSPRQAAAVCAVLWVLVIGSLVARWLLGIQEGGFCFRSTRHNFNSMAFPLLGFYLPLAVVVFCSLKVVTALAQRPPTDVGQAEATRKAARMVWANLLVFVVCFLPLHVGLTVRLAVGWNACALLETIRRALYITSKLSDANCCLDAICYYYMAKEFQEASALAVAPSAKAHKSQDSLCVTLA
T4 sequence (P34972 whole entry): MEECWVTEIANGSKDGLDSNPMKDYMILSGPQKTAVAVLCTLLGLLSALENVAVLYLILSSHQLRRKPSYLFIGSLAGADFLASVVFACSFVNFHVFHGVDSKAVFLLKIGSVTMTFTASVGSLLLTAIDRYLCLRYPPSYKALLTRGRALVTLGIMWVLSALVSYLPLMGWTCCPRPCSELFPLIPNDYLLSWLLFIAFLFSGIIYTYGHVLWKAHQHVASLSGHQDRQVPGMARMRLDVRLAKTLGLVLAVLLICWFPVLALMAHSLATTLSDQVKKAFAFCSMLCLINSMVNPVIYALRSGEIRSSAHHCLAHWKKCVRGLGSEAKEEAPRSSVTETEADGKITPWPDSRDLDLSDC
T6 sequence (P63165 whole entry): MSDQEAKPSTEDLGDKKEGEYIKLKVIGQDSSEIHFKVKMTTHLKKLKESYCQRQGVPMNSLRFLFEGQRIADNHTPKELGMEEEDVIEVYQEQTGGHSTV
T5 sequence (P49327 whole entry): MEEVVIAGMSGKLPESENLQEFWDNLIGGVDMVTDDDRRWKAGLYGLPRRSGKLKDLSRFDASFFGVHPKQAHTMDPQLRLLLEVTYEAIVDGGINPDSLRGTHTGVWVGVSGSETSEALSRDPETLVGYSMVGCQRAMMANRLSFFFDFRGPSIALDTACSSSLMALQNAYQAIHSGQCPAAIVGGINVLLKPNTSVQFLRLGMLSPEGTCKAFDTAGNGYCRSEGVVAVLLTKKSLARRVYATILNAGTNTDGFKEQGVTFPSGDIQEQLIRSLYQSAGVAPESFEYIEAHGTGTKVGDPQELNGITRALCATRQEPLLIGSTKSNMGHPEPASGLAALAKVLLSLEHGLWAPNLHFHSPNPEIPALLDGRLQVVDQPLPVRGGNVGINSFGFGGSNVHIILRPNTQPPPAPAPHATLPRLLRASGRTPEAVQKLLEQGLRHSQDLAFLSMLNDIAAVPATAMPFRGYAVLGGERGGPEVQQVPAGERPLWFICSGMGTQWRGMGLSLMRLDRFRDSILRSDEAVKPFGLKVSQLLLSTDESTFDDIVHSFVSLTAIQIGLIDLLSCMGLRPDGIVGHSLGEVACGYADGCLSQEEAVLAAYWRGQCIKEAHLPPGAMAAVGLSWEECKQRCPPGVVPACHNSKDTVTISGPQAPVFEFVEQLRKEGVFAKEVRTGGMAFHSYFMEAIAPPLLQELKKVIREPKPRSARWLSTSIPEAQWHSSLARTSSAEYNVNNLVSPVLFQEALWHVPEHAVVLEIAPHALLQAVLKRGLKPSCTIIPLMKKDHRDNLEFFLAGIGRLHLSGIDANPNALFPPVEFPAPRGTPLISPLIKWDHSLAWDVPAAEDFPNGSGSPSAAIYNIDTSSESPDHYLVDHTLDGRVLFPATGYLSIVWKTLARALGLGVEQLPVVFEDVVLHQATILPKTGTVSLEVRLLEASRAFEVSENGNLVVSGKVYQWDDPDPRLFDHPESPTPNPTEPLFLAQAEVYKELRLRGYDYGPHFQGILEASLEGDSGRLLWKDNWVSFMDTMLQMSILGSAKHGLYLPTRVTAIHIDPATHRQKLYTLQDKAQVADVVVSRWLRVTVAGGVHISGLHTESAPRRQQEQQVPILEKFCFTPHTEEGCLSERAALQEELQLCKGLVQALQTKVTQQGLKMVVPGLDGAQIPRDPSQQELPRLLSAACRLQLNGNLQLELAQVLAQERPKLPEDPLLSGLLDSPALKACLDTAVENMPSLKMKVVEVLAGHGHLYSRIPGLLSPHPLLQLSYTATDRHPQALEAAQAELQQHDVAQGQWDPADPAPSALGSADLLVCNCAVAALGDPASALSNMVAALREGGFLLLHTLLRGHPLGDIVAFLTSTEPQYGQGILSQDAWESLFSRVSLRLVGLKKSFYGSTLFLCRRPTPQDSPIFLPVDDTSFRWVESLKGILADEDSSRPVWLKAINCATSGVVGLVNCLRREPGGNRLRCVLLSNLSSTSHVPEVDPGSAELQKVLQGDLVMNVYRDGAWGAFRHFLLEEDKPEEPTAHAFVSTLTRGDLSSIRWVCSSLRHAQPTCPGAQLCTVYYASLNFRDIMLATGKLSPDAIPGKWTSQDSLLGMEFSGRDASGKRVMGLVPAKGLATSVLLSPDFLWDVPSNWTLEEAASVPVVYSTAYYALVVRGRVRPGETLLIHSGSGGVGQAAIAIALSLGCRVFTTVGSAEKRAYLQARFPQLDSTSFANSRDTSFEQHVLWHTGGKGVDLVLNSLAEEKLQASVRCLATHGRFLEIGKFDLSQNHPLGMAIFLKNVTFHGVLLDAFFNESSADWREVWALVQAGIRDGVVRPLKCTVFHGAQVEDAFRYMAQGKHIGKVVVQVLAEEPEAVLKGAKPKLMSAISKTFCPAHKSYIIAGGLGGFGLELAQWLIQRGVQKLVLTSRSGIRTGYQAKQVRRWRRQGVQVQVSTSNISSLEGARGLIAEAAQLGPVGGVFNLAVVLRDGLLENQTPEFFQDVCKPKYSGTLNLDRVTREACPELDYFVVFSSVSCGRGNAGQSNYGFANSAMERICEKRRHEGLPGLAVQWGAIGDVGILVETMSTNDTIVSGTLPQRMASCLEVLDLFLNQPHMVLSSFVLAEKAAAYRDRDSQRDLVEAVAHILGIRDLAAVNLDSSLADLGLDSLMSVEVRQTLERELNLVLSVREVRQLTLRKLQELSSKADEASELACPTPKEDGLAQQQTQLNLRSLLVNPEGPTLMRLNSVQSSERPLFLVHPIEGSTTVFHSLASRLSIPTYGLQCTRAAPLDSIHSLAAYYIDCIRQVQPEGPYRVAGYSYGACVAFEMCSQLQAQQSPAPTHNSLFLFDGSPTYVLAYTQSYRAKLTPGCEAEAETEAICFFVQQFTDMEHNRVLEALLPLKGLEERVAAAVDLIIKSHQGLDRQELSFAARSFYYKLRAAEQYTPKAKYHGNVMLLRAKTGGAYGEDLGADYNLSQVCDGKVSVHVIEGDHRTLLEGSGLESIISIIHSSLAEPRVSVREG
Chain of Trypsin (P00761 whole entry): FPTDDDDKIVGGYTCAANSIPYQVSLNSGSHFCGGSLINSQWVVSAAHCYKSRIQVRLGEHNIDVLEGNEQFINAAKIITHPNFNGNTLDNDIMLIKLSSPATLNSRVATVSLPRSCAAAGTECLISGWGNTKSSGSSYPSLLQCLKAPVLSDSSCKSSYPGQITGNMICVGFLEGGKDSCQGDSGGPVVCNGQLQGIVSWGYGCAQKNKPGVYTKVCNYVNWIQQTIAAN
Chain of Bcl-2-related protein A1 (Q07440 whole entry): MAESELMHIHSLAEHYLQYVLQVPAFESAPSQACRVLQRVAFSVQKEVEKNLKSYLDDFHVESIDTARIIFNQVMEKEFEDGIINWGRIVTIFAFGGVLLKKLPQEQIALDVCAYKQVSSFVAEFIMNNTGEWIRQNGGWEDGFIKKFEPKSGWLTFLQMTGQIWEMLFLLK

Usually EC50 stands for the concentration giving half of the maximal effect. The AC50 is the midpoint of the concentration-response curve, whichever way the signal moves. With `CC(C)(C)OC(=O)N1CCC(c2cc(O)n3ncc(C(=O)Nc4ccc(F)c(Cl)c4)c3n2)CC1`, the EC50 in test [1] was > 32 µM (inactive); in test [2], 5.23 µM (active); in test [5], > 32 µM (inactive); in test [6] it was > 150 µM (not active); in test [11], > 150 µM (not active). Also, the IC50 in test [3] is 10.5 µM (inactive); in test [4] it was 0.948 µM (active); in [7], 5.64 µM (active); in test [8], > 66.6 µM (inactive); in test [9], 8.24 µM (active); in test [10], 1.41 µM (active). For the same compound, the results for the IC50 in test [12], in test [13] and in test [16] were 25.4 µM (inactive), > 32 µM (inactive) and 9.68 µM (active), respectively. The AC50 in test [14] is 77.2 µM (active); in [15], 17.8 µM (active).
On to `CCCCN(C(=O)c1ccco1)c1nnc(-c2cc(OC)c(OC)c(OC)c2)s1`, for which the IC50 in test [17] is 9.79 µM (active); in test [18] it was > 20 µM (inactive); in test [19], 10.4 µM (active).
With `O=S(=O)(NC1c2cccc3cccc(c23)C1N1CCN(CCO)CC1)c1ccccc1` (stereo not drawn), the EC50 in [20] is 24 µM (inactive); in [21] it was 18.1 µM (active).
In the case of `Cc1nc(N2CCN(C(=O)C3CCCO3)CC2)c2c3c(sc2n1)CCCC3` (stereo not drawn), the EC50 in test [22], in test [25] and in test [28] was > 32 µM (inactive) in each case. Further, the IC50 in test [23], in test [24], in [26] and in [27] was > 32 µM (inactive) throughout.

The values are drawn from ChEMBL document CHEMBL1201862, “PubChem BioAssay data set” (2004).
